Experimental findings from article PMC7966503, “Deciphering the Pharmacological Mechanisms of Guizhi-Fuling Capsule on Primary Dysmenorrhea Through Network Pharmacology” (Frontiers in Pharmacology, 2021) are described below.

Assay [1] has as its target T1, recombinant human COX2 (Homo sapiens, UniProt P35354).
T1 construct: purchased Beyotime #S0168
T1 sequence (P35354 18-604): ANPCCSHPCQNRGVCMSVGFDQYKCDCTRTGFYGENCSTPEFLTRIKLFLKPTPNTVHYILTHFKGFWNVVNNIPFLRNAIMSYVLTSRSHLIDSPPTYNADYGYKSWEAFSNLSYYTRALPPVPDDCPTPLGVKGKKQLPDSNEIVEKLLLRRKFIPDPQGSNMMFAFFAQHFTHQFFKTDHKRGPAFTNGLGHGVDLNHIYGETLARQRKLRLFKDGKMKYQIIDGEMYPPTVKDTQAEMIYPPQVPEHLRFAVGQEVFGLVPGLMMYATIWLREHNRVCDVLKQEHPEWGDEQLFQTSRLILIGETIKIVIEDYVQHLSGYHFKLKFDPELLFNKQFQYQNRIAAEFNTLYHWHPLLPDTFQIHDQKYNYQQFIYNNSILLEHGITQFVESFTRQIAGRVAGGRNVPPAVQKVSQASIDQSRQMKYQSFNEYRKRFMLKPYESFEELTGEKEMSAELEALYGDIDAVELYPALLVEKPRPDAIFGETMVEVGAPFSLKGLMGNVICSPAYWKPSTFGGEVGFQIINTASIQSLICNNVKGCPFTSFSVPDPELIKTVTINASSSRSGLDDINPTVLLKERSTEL
Kind of assay: COX2 activity assay (cyclooxygenase-2 inhibitor screening kit, fluorescence). It counts as biochemical. To be noted: duplicated samples. The text has this: And then we selected predicted compounds and a specific target for preliminary analysis of their dosages and ratios as a starting point. In vitro enzyme activity assays were used to analyze the relationship between predicted GZFLC compounds’ different dosages and their intervention intensity on a specific target COX2, and to investigate GZFLC’s intervention intensity on COX2 under the specific ratio of GZFLC compounds which is relatively fixed in GZFLC. The content in the GZFLC (Jiangsu Kanion Pharmaceutical Co., Ltd. Jiangsu, China, No. 170601) was weighed and extracted with dimethyl sulfoxide (DMSO, 32.308:1, W/V, mg/ml) at 37°C for 30 min. The liquid was collected by centrifugation, and the supernatant was filtered through a 0.22 μ filter. The effect of GZFLC or pure chemicals including 1,2,3,4,6-penta-O-galloyl-beta-D-glucopyranose (purity (%) ≥98%, CAS: 14,937–32–7, Pubchem CID: 65238, Nanjing SenBeiJia Biological Technology Co., Ltd.), galloylpaeoniflorin (purity (%) ≥98%, CAS: 122,965–41–7, Pubchem CID: 46882879, Nanjing SenBeiJia Biological Technology Co., Ltd.), ethyl gallate (purity (%)≥98%, CAS: 831–61–8, Pubchem CID: 13250, Nanjing SenBeiJia Biological Technology Co., Ltd.) and gallic acid (purity (%)≥98%, CAS: 149–91–7, Pubchem CID: 370, Nanjing SenBeiJia Biological Technology Co., Ltd.) on COX2 activity was measured using cyclooxygenase-2 inhibitor screening kit (Beyotime, Cat. No. #S0168). Briefly, the recombinant human COX2 assay mixture (total volume = 90μL/well) consisting of assay buffer, cofactor, COX2 enzyme, and test compound (diluted in DMSO, 5.56% DMSO finally in assay) was incubated at 25°C for 5 min. Detection of the product was performed by adding probe (5μL/well). Arachidonic acid was added and the reaction was allowed to proceed for 15 min at 37°C. The fluorescence of the resulting solution was measured using SpectraMax M2e multilabel plate reader (Molecular Devices, United Kingdom). […] Data was represented as X¯±SD of duplicated samples. The effect of the samples on COX2 was calculated using the following equation: Relative activity of COX2(%)=(RFUsample−RFUBW/RFUA−RFUBW)×100%.

Assay [2] deals with oxytocin-induced dysmenorrhea murine model. In words: Writhing response in oxytocin-induced dysmenorrhea murine model. The class given is in vivo, ICR mice. As to conditions: 0.1 g/kg oral; within 30 min after oxytocin; mean±SEM, n = 10; model group 32.6 ± 8.5. The procedure: (§1) Oxytocin-induced dysmenorrhea in mice was performed according to the method previously reported ([Sun et al., 2002]). […] Except for the normal group (subcutaneous injection of saline), the other groups were administrated by subcutaneous estradiol benzoate injection (0.05 ml/mouse on the first and 10th day, and 0.025 ml/mouse on the remaining days) for ten consecutive days. […] On the 10th day, oxytocin (0.2 ml/2 IU/mouse) was administered by peritoneal injection 1 h after the last administration. The number of animal writhing times was observed and recorded within 30 min after injection of oxytocin. […] The mice were sacrificed immediately. The uterus tissues were fixed with 10% formalin for further study.

Assay [3] shares this test system. In words: Uterine histopathology (H&E) in oxytocin-induced dysmenorrhea murine model. The class given is in vivo, ICR mice. To be noted: ibuprofen 0.1 g/kg; GZFLC 0.54 and 1.08 g/kg oral, seven days. The method, then:
as §1, with “study. The uterus tissues were fixed in 10% formalin and stained with hematoxylin and eosin (H&E). […] According to the severity of the lesion, it was recorded as one point (mild), two points (moderate), three points (severe), four points (extremely severe), no lesion was recorded as 0 point. All scores were accumulated and the average score ( X¯±SD ) of each animal in each group was calculated.” for “study.”

Where [4] appears, read: read-out: IC50, inhibition of the activity of COX2 in vitro (converted).

Structures are written as SMILES. “And” between values parts separate entries of the source, which are not always exact repeats. Equal values may be shown once. Read-outs that look alike come from different tables or passages of the source.

By IC50 is commonly meant the midpoint of a concentration-inhibition curve.

Take `O=C(OC[C@H]1O[C@@H](OC(=O)c2cc(O)c(O)c(O)c2)[C@H](OC(=O)c2cc(O)c(O)c(O)c2)[C@@H](OC(=O)c2cc(O)c(O)c(O)c2)[C@@H]1OC(=O)c1cc(O)c(O)c(O)c1)c1cc(O)c(O)c(O)c1` [1,2,3,4,6-penta-O-galloyl-beta-D-glucopyranose]: the IC50 in assay [1] (setting [4]) was 380 nM and 383 nM. On the same count and under the same terms, the same measure for `CCOC(=O)c1cc(O)c(O)c(O)c1` [ethyl gallate]: 1110 nM. On to `O=C(O)c1cc(O)c(O)c(O)c1` [gallic acid], for which the IC50 in assay [1] (IC50, inhibition of the activity of COX2 in vitro) is 1950 nM and 1940 nM. With `C[C@@]12C[C@@]3(O)O[C@@H](O1)[C@]1(COC(=O)c4ccccc4)[C@H]3C[C@@]12O[C@@H]1O[C@H](COC(=O)c2cc(O)c(O)c(O)c2)[C@@H](O)[C@H](O)[C@H]1O` [galloylpaeoniflorin], the IC50 in assay [1] (setting [4]) was 740 nM and 743 nM. For the compound `CC(C)Cc1ccc(C(C)C(=O)O)cc1` (stereo not drawn) [ibuprofen], the “number of writhing times” value in assay [2] amounted to 5.9 ± 2.1. Further, the “degree of uterine lesions (histopathology, H&E)” value in assay [3] is “reducing the degree of uterine lesions”.
